The target in experiment [1] is T1, Protein cereblon/Tyrosine-protein phosphatase non-receptor type 1 (Homo sapiens, UniProt P18031+Q96SW2). The experiment is described as follows: PROTAC activity at PTP1B/CRBN in insulin treated human HepG2 cells assessed as protein degradation incubated for 72 hrs by Western blot analysis. The class given is cell-based. (In general: A western blot detects proteins with antibodies after separation by electrophoresis.)

For experiment [2], the target named is T1, Protein cereblon/Tyrosine-protein phosphatase non-receptor type 1. The experiment is described as follows: PROTAC activity at PTP1B/CRBN in insulin treated human HepG2 cells assessed as protein degradation at 500 nM incubated for 48 hrs by Western blot analysis relative to control. Format: cell-based.
Target sequence in this assay (P18031 whole entry, looked up): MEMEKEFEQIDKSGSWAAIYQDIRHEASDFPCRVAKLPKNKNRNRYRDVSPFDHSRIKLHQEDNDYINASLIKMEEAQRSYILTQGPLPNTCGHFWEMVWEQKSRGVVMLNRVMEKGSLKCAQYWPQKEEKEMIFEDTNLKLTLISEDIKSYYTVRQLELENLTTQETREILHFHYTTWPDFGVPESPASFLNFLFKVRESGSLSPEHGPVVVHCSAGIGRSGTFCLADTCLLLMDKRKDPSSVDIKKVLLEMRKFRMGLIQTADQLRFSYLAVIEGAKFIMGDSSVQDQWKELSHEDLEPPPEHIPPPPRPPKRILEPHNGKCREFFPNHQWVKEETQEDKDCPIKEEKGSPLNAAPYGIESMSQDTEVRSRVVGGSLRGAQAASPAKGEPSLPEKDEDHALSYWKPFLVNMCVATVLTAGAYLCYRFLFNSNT
Target sequence in this assay (Q96SW2 whole entry, looked up): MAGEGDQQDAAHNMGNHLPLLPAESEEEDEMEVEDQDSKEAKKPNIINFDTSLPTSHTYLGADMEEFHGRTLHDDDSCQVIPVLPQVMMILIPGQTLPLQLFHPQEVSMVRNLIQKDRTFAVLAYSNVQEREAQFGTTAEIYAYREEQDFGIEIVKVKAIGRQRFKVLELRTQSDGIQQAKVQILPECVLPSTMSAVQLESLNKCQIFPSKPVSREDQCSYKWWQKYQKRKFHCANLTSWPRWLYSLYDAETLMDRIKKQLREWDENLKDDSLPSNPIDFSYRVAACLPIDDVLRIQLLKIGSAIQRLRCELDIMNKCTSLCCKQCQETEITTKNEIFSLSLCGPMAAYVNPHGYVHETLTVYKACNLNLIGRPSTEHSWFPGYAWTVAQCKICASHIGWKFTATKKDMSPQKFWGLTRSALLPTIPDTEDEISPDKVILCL
Experiment [3] shares this target. Briefly: PROTAC activity at PTP1B/CRBN in insulin treated human HepG2 cells assessed as protein degradation at 5 nM incubated for 48 hrs by Western blot analysis relative to control. Format: cell-based.
Target sequence in this assay (P18031 whole entry, looked up): as the sequence (P18031 whole entry, looked up) above
Target sequence in this assay (Q96SW2 whole entry, looked up): as the sequence (Q96SW2 whole entry, looked up) above
Experiment [4] has the same target. The experiment is described as follows: PROTAC activity at PTP1B/CRBN in insulin treated human HepG2 cells assessed as protein degradation at 1250 nM incubated for 72 hrs by Western blot analysis relative to control. The class given is cell-based.
Target sequence in this assay (P18031 whole entry, looked up): as the sequence (P18031 whole entry, looked up) above
Target sequence in this assay (Q96SW2 whole entry, looked up): as the sequence (Q96SW2 whole entry, looked up) above
Experiment [5] shares this target. The experiment is described as follows: PROTAC activity at PTP1B/CRBN in insulin treated human HepG2 cells assessed as protein degradation at 625 nM incubated for 48 hrs by Western blot analysis relative to control. The class given is cell-based.
Target sequence in this assay (P18031 whole entry, looked up): as the sequence (P18031 whole entry, looked up) above
Target sequence in this assay (Q96SW2 whole entry, looked up): as the sequence (Q96SW2 whole entry, looked up) above
Experiment [6] has the same target. Briefly: PROTAC activity at PTP1B/CRBN in insulin treated human HepG2 cells assessed as protein degradation at 1250 nM incubated for 48 hrs by Western blot analysis relative to control. Format: cell-based.
Target sequence in this assay (P18031 whole entry, looked up): as the sequence (P18031 whole entry, looked up) above
Target sequence in this assay (Q96SW2 whole entry, looked up): as the sequence (Q96SW2 whole entry, looked up) above
Experiment [7] has the same target. Briefly: PROTAC activity at PTP1B/CRBN in insulin treated human HepG2 cells assessed as protein degradation at 125 nM incubated for 48 hrs by Western blot analysis relative to control. The class given is cell-based.
Target sequence in this assay (P18031 whole entry, looked up): as the sequence (P18031 whole entry, looked up) above
Target sequence in this assay (Q96SW2 whole entry, looked up): as the sequence (Q96SW2 whole entry, looked up) above
Experiment [8] shares this target. Briefly: PROTAC activity at PTP1B/CRBN in insulin treated human HepG2 cells assessed as protein degradation at 25 nM incubated for 72 hrs by Western blot analysis relative to control. The class given is cell-based.
Experiment [9] has the same target. Briefly: PROTAC activity at PTP1B/CRBN in insulin treated human HepG2 cells assessed as protein degradation at 1 nM incubated for 48 hrs by Western blot analysis relative to control. Format: cell-based.
For experiment [10] the target is unchanged. The experiment is described as follows: PROTAC activity at PTP1B/CRBN in insulin treated human HepG2 cells assessed as protein degradation at 50 nM incubated for 48 hrs by Western blot analysis relative to control. Format: cell-based.
Experiment [11] has the same target. The experiment is described as follows: PROTAC activity at PTP1B/CRBN in insulin treated human HepG2 cells assessed as protein degradation at 1 nM incubated for 72 hrs by Western blot analysis relative to control. Format: cell-based.
The target is the same in experiment [12]. The experiment is described as follows: PROTAC activity at PTP1B/CRBN in insulin treated human HepG2 cells assessed as protein degradation at 25 nM incubated for 48 hrs by Western blot analysis relative to control. The class given is cell-based.
The target is the same in experiment [13]. The experiment is described as follows: PROTAC activity at PTP1B/CRBN in insulin treated human HepG2 cells assessed as protein degradation incubated for 48 hrs by Western blot analysis. The class given is cell-based.
Experiment [14] has the same target. Briefly: PROTAC activity at PTP1B/CRBN in insulin treated human HepG2 cells assessed as protein degradation at 125 nM incubated for 72 hrs by Western blot analysis relative to control. Format: cell-based.
For experiment [15] the target is unchanged. Briefly: PROTAC activity at PTP1B/CRBN in insulin treated human HepG2 cells assessed as protein degradation at 5000 nM incubated for 48 hrs by Western blot analysis relative to control. The class given is cell-based.
Experiment [16] shares this target. Briefly: PROTAC activity at PTP1B/CRBN in insulin treated human HepG2 cells assessed as protein degradation at 625 nM incubated for 72 hrs by Western blot analysis relative to control. Format: cell-based.
Experiment [17] has the same target. Briefly: PROTAC activity at PTP1B/CRBN in insulin treated human HepG2 cells assessed as protein degradation at 5 nM incubated for 72 hrs by Western blot analysis relative to control. Format: cell-based.
The subject of a further experiment is Mus musculus. The experiment is described as follows: Anti-diabetic activity in KM mouse assessed as reduction in blood glucose measured for 0 to 120 mins at 40 mg/kg single dose by oral glucose tolerance test (oGTT) relative to control. Format: functional. The conditions noted are these: time 0-120 min.

Structures are written as SMILES. Bounds are passed on as bounds.

On to `CC1(C)CC[C@]2(C(=O)NCCCOCCOCCOCCCNc3cccc4c3C(=O)N(C3CCC(=O)NC3=O)C4=O)CC[C@]3(C)C(=CC[C@@H]4[C@@]5(C)CC[C@H](O)C(C)(C)[C@@H]5CC[C@]43C)[C@@H]2C1` (stereo partly drawn), for which the Activity entry in experiment [1] was “Dose-Dependent Effect”; in experiment [2], 53%; in [3], 38%; in experiment [4], 24%; in experiment [5] it was 51%; in experiment [6], 78%. The Activity was 36% in experiment [7]; 58% in experiment [8]; 24% in experiment [9]; 61% in experiment [10]; less than 5% in experiment [11]; less than 5% in experiment [12]. For the same compound, the Activity entry is “Dose-Dependent Effect” in [13]; 41% in [14]; 31% in [15]; 25% in experiment [16]; 23% in experiment [17]. Besides, the DC50 – broadly, the concentration at which degradation of the target reaches its halfway point – in experiment [1] was 3640 nM; in experiment [13], 540 nM.

For the compound `C[C@H]1[C@H](C)CC[C@]2(C(=O)NCCCCCCOCCOCCOCC(=O)Nc3cccc4c3C(=O)N(C3CCC(=O)NC3=O)C4=O)CC[C@]3(C)C(=CC[C@@H]4[C@@]5(C)CC[C@H](O)C(C)(C)[C@@H]5CC[C@]43C)[C@H]12` (stereo partly drawn), the Activity result is “Dose-Dependent Effect” in [1]; 53% in [2]; 83% in experiment [3]; 56% in experiment [4]; 21% in [5]; 77% in experiment [6]. Besides, the Activity in [7] is 17%; in experiment [8] it was 50%; in experiment [9], 8%; in [10] it was 46%; in experiment [11], 33%; in [12] it was 33%. The Activity result is “Dose-Dependent Effect” in [13]; 55% in experiment [14]; less than 5% in experiment [15]; 49% in experiment [16]; 57% in experiment [17]. Besides, the DC50 was found to be 40 nM in experiment [1] and 250 nM in experiment [13]. Further, in the experiment on Mus musculus, the inhibition in vivo (as a rule, how much of the control response was suppressed) at 40 mg/kg was determined as 18.3%.

Consider `C[C@H]1[C@H](C)CC[C@]2(C(=O)NCCCOCCOCCOCCCNc3cccc4c3C(=O)N(C3CCC(=O)NC3=O)C4=O)CC[C@]3(C)C(=CC[C@@H]4[C@@]5(C)CC[C@H](O)C(C)(C)[C@@H]5CC[C@]43C)[C@H]12` (stereo partly drawn), for which the Activity in [2] stood at 29%; in experiment [3], 37%; in [10], 51%; in experiment [15], 36%. Moreover, the inhibition in vivo at 40 mg/kg in the experiment on Mus musculus is 15.3%.

As for `C[C@H]1[C@H](C)CC[C@]2(C(=O)NCCCCCCOCCOCCOCCOCC(=O)Nc3cccc4c3C(=O)N(C3CCC(=O)NC3=O)C4=O)CC[C@]3(C)C(=CC[C@@H]4[C@@]5(C)CC[C@H](O)C(C)(C)[C@@H]5CC[C@]43C)[C@H]12` (stereo partly drawn), the Activity result in [1] was “Dose-Dependent Effect”; in [2], 33%; in experiment [3], less than 5%; in [4], 61%; in [5] it was 68%; in experiment [6] it was 35%. In addition, the Activity was determined as 61% in [7]; 48% in experiment [8]; 37% in experiment [9]; 41% in experiment [10]; 30% in [11]; 23% in experiment [12]. For the same compound, the Activity entry was “Dose-Dependent Effect” in experiment [13]; 32% in experiment [14]; 19% in experiment [15]; 28% in [16]; 36% in [17]. Moreover, the DC50 in [1] was 310 nM; in [13], 200 nM.

(Values after ChEMBL document CHEMBL5543175, “Discovery of Selective Proteolysis-Targeting Chimera Degraders Targeting PTP1B as Long-Term Hypoglycemic Agents” (J Med Chem, 2024).)
